{
  "source": "patent US11771651B2",
  "about": "“Liposomes and uses thereof” (Academia Sinica, priority 2018, dated 2023)",
  "format_in_all_cases": "cell-based, human",
  "key": {"KB cells [1]": {"system": "KB cells", "assay": "MTT assay, photo-responsive liposomes", "details": "DOX apparent concentration, 40 hours incubation", "protocol": "Then, the medium was replaced by the MEM medium (without FBS) containing free DOX, or the MEM medium (without FBS) containing DDL or MDL, in the presence or absence of light irradiation (5 mW/cm^2, 4 minutes), and then incubated at 37° C. for additional 20 hours. The medium was further replaced to MEM with 10% FBS for another 20 hours incubation at 37° C. 20 μl of MTT stock solution (5 mg/ml in PBS) was added to each well incubated at 37° C. for 2 hours, then removed 170 μl of culture medium followed by the addition of 200 μl of DMSO to each well to dissolve the purple formazan product at 37° C. on a 120 rpm reciprocal shaker for 10 minutes. The absorbance of the formazan product in DMSO solution at 540 nm was measured by plate reader so as to estimate cellular viability."}, "KB cells [2]": {"system": "KB cells", "assay": "Endogenous ALP-induced liposomal DOX release by flow cytometer", "details": "25 μM, 20 hours, data not shown", "protocol": "The cell solution (100 μl) were diluted to 1 ml PBS for flow cytometry analysis."}, "KB cells [3]": {"system": "KB cells", "assay": "MTT assay, phosphatase-responsive liposomes", "details": "free DOX, ALP status not stated", "protocol": "In the study of the phosphatase-responsive liposomes, KB cells (2×10^4 cells per well) were seeded on a 96 well plate in DMEM with 10% FBS at 37° C. for 20 hours. Then, the medium was replaced by the MEM medium (without FBS) containing DOX liposome, 3-MDL, 4-MDL, 5-MDL, 6-MDL, 7-MDL or free DOX, with or without ALP (50 U/ml), and then incubated at 37° C. for 20 hours. The medium was further replaced to MEM with 10% FBS for another 20 hour incubation at 37° C. 20 μl of MTT stock solution (5 mg/ml in PBS) was added to each well incubated at 37° C. for 2 hours, then removed 170 μl of culture medium followed by the addition of 200 μl of DMSO to each well to dissolve the purple formazan product at 37° C. on a 120 rpm reciprocal shaker for 10 minutes. The absorbance of the formazan product in DMSO solution at 540 nm was measured by plate reader to estimate cellular viability."}},
  "note": "Where “and” joins values, the source holds several entries; their conditions need not be identical. Equal values may be shown once.",
  "data": [
    {"smiles": "COc1cccc2c1C(=O)c1c(O)c3c(c(O)c1C2=O)C[C@@](O)(C(=O)CO)C[C@@H]3O[C@H]1C[C@H](N)[C@H](O)[C@H](C)O1", "note": "[DOX, doxorubicin]", "values": [
      {"measurement": "IC50", "setting": "KB cells [1]; UV (irradiated 4 minutes)", "value": "3000 nM and ~3000 nM"},
      {"measurement": "IC50", "setting": "KB cells [1]; dark (non-irradiated)", "value": "700 nM and ~700 nM"},
      {"measurement": "DOX uptake (cellular DOX fluorescence)", "setting": "KB cells [2]", "value": 100, "unit": "%"},
      {"measurement": "IC50", "setting": "KB cells [3]", "value": 3000, "unit": "nM"}
    ]}
  ]
}
